In brackets after ≈: the same amount, converted by molar mass.
What was measured:
Escherichia coli [1] = assay: Antibacterial activity against Escherichia coli AG102MB harboring pSportI cloning vector
Escherichia coli [2] = assay: Antibacterial activity against Escherichia coli AG102MB harboring naive acrB gene; format: functional
Escherichia coli [3] = assay: Antibacterial activity against Escherichia coli AG102MB; format: functional
Escherichia coli [4] = assay: Antibacterial activity against Escherichia coli AG102MB harboring pS1328-based acrB gene; format: functional
Escherichia coli [5] = assay: Antibacterial activity against Escherichia coli AG102MB harboring pP10-based acrB gene; format: functional

CC1(C)S[C@@H]2[C@H](NC(=O)[C@H](N)c3ccccc3)C(=O)N2[C@H]1C(=O)O [AMPICILLIN]
MIC (Escherichia coli [1]): > 1020 µg/mL
MIC (Escherichia coli [2]): > 1020 µg/mL
MIC (Escherichia coli [3]): 16 µg/mL (≈ 45.8 µM)
MIC (Escherichia coli [4]): > 1020 µg/mL
MIC (Escherichia coli [5]): > 1020 µg/mL

O=C(N[C@H](CO)[C@H](O)c1ccc([N+](=O)[O-])cc1)C(Cl)Cl [CHLORAMPHENICOL]
MIC (Escherichia coli [1]): 4 µg/mL (≈ 12.4 µM)
MIC (Escherichia coli [3]): 2 µg/mL (≈ 6.19 µM)
MIC (Escherichia coli [5]): 32 µg/mL (≈ 99 µM)

C[C@H](CCC(=O)O)[C@H]1CC[C@H]2[C@@H]3[C@H](O)C[C@@H]4C[C@H](O)CC[C@]4(C)[C@H]3C[C@H](O)[C@]12C [CHOLIC ACID]
MIC (Escherichia coli [1]): 4 µg/mL (≈ 9.79 µM)
MIC (Escherichia coli [2]): 8 µg/mL (≈ 19.6 µM)
MIC (Escherichia coli [3]): 4 µg/mL (≈ 9.79 µM)
MIC (Escherichia coli [4]): 16 µg/mL (≈ 39.2 µM)
MIC (Escherichia coli [5]): 8 µg/mL (≈ 19.6 µM)

O=C(O)c1cn(C2CC2)c2cc(N3CCNCC3)c(F)cc2c1=O [CIPROFLOXACIN]
MIC (Escherichia coli [3]): 0.063 µg/mL (≈ 0.19 µM)

CC[C@H]1OC(=O)[C@H](C)[C@@H](O[C@H]2C[C@@](C)(OC)[C@@H](O)[C@H](C)O2)[C@H](C)[C@@H](O[C@@H]2O[C@H](C)C[C@H](N(C)C)[C@H]2O)[C@](C)(O)C[C@@H](C)C(=O)[C@H](C)[C@@H](O)[C@]1(C)O [ERYTHROMYCIN]
MIC (Escherichia coli [1]): 8 µg/mL (≈ 10.9 µM)
MIC (Escherichia coli [2]): 128 µg/mL (≈ 174 µM)
MIC (Escherichia coli [3]): 4 µg/mL (≈ 5.45 µM)
MIC (Escherichia coli [4]): 512 µg/mL (≈ 698 µM)
MIC (Escherichia coli [5]): 128 µg/mL (≈ 174 µM)

CC(=O)O[C@H]1C[C@@]2(C)[C@@H](C[C@@H](O)[C@H]3[C@@]4(C)CC[C@@H](O)[C@@H](C)[C@@H]4CC[C@@]32C)/C1=C(\CCC=C(C)C)C(=O)O [FUSIDIC ACID]
MIC (Escherichia coli [1]): 8 µg/mL (≈ 15.5 µM)
MIC (Escherichia coli [2]): > 512 µg/mL
MIC (Escherichia coli [3]): 16 µg/mL (≈ 31 µM)
MIC (Escherichia coli [4]): > 512 µg/mL
MIC (Escherichia coli [5]): > 512 µg/mL

CN(C)c1ccc(C(=C2C=CC(=[N+](C)C)C=C2)c2ccc(N(C)C)cc2)cc1.[Cl-] [GENTIAN VIOLET]
MIC (Escherichia coli [1]): 0.5 µg/mL
MIC (Escherichia coli [2]): 4 µg/mL
MIC (Escherichia coli [3]): 0.5 µg/mL
MIC (Escherichia coli [4]): 4 µg/mL
MIC (Escherichia coli [5]): 4 µg/mL

CC[n+]1c(-c2ccccc2)c2cc(N)ccc2c2ccc(N)cc21.[Br-] [HOMIDIUM BROMIDE]
MIC (Escherichia coli [1]): 2 µg/mL
MIC (Escherichia coli [2]): 128 µg/mL
MIC (Escherichia coli [3]): 4 µg/mL
MIC (Escherichia coli [4]): 64 µg/mL
MIC (Escherichia coli [5]): 64 µg/mL

NC[C@H]1O[C@H](O[C@H]2[C@H](O)[C@@H](O[C@H]3O[C@H](CO)[C@@H](O)[C@H](N)[C@H]3O)[C@H](N)C[C@@H]2N)[C@H](O)[C@@H](O)[C@@H]1O [KANAMYCIN]
MIC (Escherichia coli [3]): > 1020 µg/mL

CO[C@@H]1[C@@H](OC(N)=O)[C@@H](O)[C@H](Oc2ccc3c(O)c(NC(=O)c4ccc(O)c(CC=C(C)C)c4)c(=O)oc3c2C)OC1(C)C [NOVOBIOCIN]
MIC (Escherichia coli [1]): 8 µg/mL (≈ 13.1 µM)
MIC (Escherichia coli [2]): 512 µg/mL (≈ 836 µM)
MIC (Escherichia coli [3]): 4 µg/mL (≈ 6.53 µM)
MIC (Escherichia coli [4]): 512 µg/mL (≈ 836 µM)
MIC (Escherichia coli [5]): 512 µg/mL (≈ 836 µM)

CO[C@H]1C[C@H](O[C@H]2[C@H](C)[C@@H](O[C@@H]3O[C@H](C)C[C@H](N(C)C)[C@H]3O)[C@@H](C)C[C@@]3(CO3)C(=O)[C@H](C)[C@@H](O)[C@@H](C)[C@@H](C)OC(=O)[C@@H]2C)O[C@@H](C)[C@@H]1O [OLEANDOMYCIN]
MIC (Escherichia coli [1]): 64 µg/mL (≈ 93 µM)
MIC (Escherichia coli [2]): > 1020 µg/mL
MIC (Escherichia coli [3]): 256 µg/mL (≈ 372 µM)
MIC (Escherichia coli [4]): > 1020 µg/mL
MIC (Escherichia coli [5]): > 1020 µg/mL

CN(C)[C@@H]1C(O)=C(C(N)=O)C(=O)[C@@]2(O)C(O)=C3C(=O)c4c(O)cccc4[C@@](C)(O)[C@H]3C[C@@H]12 [TETRACYCLINE]
MIC (Escherichia coli [1]): 1 µg/mL (≈ 2.25 µM)
MIC (Escherichia coli [2]): 8 µg/mL (≈ 18 µM)
MIC (Escherichia coli [3]): 1 µg/mL (≈ 2.25 µM)
MIC (Escherichia coli [4]): 16 µg/mL (≈ 36 µM)
MIC (Escherichia coli [5]): 8 µg/mL (≈ 18 µM)

CC[C@H]1OC(=O)C[C@@H](O)[C@H](C)[C@@H](O[C@@H]2O[C@H](C)[C@@H](O[C@H]3C[C@@](C)(O)[C@@H](O)[C@H](C)O3)[C@H](N(C)C)[C@H]2O)[C@@H](CC=O)C[C@@H](C)C(=O)/C=C/C(C)=C/[C@@H]1CO[C@@H]1O[C@H](C)[C@@H](O)[C@@H](OC)[C@H]1OC [TYLOSIN]
MIC (Escherichia coli [1]): 16 µg/mL (≈ 17.5 µM)
MIC (Escherichia coli [2]): 1020 µg/mL (≈ 1120 µM)
MIC (Escherichia coli [3]): 128 µg/mL (≈ 140 µM)
MIC (Escherichia coli [4]): > 1020 µg/mL
MIC (Escherichia coli [5]): 1020 µg/mL (≈ 1120 µM)

Reference: ChEMBL document CHEMBL1240388, “Single nucleotide polymorphism analysis of the major tripartite multidrug efflux pump of Escherichia coli: functional conservation in disparate animal reservoirs despite exposure to antimicrobial chemotherapy” (2010)
